From patent US20240124412A1, “IKAROS ZINC FINGER FAMILY DEGRADERS AND USES THEREOF” (Gilead Sciences, Inc., priority 2021, published 2024)

Columns and labels:
IKZF1 = target: T1, IKZF1 (Homo sapiens, UniProt Q13422+Q96SW2); experiment: HiBiT protein tagging assay, in vitro IKZF1 degradation (HEK293); format: cell-based; details: HEK293, 18-24 hr incubation, normalized to DMSO control; for Dmax: read-out: IKZF1 Dmax (maximum degradation at the highest concentration tested); for DC50: read-out: IKZF1 EC50
T1 construct: expressed in transfected cells
Procedure: (§1) In vitro degradation of IKZF1 and IKZF2 was measured using HiBiT protein tagging and detection technology (Promega).
(§2) HiBiT technology (Promega) was used to develop the quantitative assays to measure the cellular IKZFs level by tagging an 11 amino acid HiBit peptides VSGWRLFKKIS (SEQ ID NO:1) to the protein of interest. Reporter plasmids were generated by fusing a linker sequence (GSSGGSSG; SEQ ID NO:2) followed by the HiBiT tag at the C terminus of IKZF1 and IKZF2. The fusion fragments were subsequently cloned into pcDNA5 pcDNA™5/FRT/TO plasmids (Thermo Fisher, cat #V652020) downstream of the Tetracycline operator. The resulting plasmids were co-transfected with pOG44 Flp-Recombinase Expression Vector (Thermo Fisher, cat #V600520) into Flp-In™ T-REx HEK293 line (Thermo Fisher, cat #R78077) and a stable cell pool was selected by adding 100 μg/ml of Hygromycin (Thermo Fisher, cat #10687010). The reporter cell enabled Tet-On inducible reporter expression from a single copy of the integrated gene.
(§3) On Day 1, Cells were grown to ˜80% confluency in TC medium (DMEM Glutamax (Gibco10569), 10% Tet free FBS (Takara 631106), and PenStrep Glutamin (Gibco 10378)) in tissue culture flasks. Doxycycline was then added to a final concentration of 1 μg/ml to induce reporter expression at 37° C. overnight.
(§4) On Day 2, 125 nL of serially-diluted solution of testing compounds were dispensed into 384-well white solid assay plates via ECHO acoustic liquid handler. Cells were lifted by 0.25% Trypsin (Gibco 25200) then pelleted by centrifugation (Beckman Avanti J-E) at 500×g for 5 min. Cell pellets were resuspended in TC medium at the concentration of 3e5/mL and 25 μL of cell suspension were added into each well of compound-spotted plates. The plates were returned to a 37° C. incubator overnight (18-24 hr).
(§5) On Day 3, assay plates were removed from the TC incubator and 25 μL of Nano-Glo lytic detection system (Promega, cat #N3030) was added to each well. Plates were incubated at r.t. for 3 min with shaking, and luminescence was read using an Envision reader (Perkin Elmer).
(§6) All raw data was normalized to DMSO control (final concentration: 0.5%) wells as POC and plotted out for EC50 and Dmax (Maximum degradation at the highest concentration tested in the assay).

IKZF2 = target: T2, IKZF2 (Homo sapiens, UniProt Q96SW2+Q9UKS7); experiment: HiBiT protein tagging assay, in vitro IKZF2 degradation (HEK293); format: cell-based; details: HEK293, 18-24 hr incubation, normalized to DMSO control; for Dmax: HEK293, HiBiT assay, read-out: IKZF2 Dmax (maximum degradation at the highest concentration tested); for DC50: HiBiT assay, read-out: IKZF2 EC50
T2 construct: expressed in transfected cells
Procedure: as §1, §2, §3, §4, §5, §6

T1 sequence (Q13422 whole entry): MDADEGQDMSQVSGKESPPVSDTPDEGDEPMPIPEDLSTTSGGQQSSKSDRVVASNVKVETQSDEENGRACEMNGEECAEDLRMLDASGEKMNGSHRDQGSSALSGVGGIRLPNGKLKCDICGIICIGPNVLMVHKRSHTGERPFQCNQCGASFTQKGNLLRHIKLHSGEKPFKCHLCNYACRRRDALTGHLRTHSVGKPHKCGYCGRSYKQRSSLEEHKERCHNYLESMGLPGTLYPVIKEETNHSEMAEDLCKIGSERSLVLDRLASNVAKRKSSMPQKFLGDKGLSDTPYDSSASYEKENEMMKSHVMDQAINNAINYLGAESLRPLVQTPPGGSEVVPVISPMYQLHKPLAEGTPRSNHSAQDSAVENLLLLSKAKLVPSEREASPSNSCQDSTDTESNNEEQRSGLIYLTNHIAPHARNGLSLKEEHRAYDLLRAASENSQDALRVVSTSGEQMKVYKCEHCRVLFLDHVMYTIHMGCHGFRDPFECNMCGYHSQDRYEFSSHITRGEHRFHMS
T1 sequence (Q96SW2 whole entry): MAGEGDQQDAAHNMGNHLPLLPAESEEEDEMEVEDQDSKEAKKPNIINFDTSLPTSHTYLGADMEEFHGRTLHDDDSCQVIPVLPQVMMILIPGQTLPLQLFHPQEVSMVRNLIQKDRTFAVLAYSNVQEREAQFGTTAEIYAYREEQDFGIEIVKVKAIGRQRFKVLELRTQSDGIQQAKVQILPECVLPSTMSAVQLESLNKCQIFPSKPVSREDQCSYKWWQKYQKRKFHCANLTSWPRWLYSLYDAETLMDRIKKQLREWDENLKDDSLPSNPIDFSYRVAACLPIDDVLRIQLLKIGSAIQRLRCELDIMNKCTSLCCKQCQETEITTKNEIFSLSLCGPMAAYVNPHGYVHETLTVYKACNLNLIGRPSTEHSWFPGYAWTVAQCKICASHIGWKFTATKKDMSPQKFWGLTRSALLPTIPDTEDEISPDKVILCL
T1 sequence (Q16531 whole entry partner): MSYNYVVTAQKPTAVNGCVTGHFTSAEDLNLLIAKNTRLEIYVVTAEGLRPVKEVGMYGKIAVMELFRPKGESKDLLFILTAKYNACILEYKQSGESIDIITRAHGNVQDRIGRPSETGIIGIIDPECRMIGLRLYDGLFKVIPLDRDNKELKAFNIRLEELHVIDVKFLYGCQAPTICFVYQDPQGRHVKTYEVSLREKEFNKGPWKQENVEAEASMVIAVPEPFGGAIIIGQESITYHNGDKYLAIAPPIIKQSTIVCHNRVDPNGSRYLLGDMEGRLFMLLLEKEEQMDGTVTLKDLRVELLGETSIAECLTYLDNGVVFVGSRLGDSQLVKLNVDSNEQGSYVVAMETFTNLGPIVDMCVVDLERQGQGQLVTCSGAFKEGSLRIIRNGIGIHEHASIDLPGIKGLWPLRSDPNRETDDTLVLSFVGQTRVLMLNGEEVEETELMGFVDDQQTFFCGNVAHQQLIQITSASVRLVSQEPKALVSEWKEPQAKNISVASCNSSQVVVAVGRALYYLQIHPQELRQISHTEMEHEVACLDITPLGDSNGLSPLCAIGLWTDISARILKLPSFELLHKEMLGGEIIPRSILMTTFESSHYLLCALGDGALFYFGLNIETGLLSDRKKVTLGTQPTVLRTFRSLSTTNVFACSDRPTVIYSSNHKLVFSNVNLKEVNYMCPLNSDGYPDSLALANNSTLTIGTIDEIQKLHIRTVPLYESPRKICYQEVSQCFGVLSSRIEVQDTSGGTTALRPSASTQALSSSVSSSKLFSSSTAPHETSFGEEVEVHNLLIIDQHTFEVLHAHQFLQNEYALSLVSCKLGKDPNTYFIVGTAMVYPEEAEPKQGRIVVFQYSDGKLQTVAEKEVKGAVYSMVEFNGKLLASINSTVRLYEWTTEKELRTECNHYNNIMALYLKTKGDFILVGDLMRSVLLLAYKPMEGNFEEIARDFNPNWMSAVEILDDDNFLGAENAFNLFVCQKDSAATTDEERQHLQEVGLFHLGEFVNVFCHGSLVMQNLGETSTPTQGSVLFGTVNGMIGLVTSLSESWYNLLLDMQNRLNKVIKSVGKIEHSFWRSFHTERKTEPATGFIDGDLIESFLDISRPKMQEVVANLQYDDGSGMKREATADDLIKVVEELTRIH
T2 sequence (Q9UKS7 1-500 isoform Q9UKS7-2): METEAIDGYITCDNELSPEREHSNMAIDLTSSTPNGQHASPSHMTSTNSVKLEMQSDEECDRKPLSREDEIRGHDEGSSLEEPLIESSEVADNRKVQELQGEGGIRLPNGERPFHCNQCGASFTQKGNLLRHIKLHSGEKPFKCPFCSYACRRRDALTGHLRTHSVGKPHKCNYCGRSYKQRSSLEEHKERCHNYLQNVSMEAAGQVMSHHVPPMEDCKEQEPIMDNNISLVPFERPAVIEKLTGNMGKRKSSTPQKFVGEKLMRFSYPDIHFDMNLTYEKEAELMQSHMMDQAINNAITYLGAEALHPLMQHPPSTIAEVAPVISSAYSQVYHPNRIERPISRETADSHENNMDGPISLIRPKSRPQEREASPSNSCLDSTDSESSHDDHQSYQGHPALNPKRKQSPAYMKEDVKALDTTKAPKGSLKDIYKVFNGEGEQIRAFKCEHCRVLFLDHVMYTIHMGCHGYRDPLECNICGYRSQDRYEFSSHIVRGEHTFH
T2 sequence (Q96SW2 whole entry): as the sequence (Q96SW2 whole entry) above
T2 sequence (Q16531 whole entry partner): as the sequence (Q16531 whole entry partner) above

SMILES	Dmax (IKZF1)	DC50 (IKZF1)	Dmax (IKZF2)	DC50 (IKZF2)
C[C@H](CO)NCc1ccc2c(c1)CN(C1CCC(=O)NC1=O)C2=O (stereo partly drawn) [Example 51, 3-[5-[[[(1R)-2-hydroxy-1-methyl-ethyl]amino]methyl]-1-oxo-isoindolin-2-yl]piperidine-2,6-dione]	36%	263 nM	17%	1200 nM
N#CC1CCCC(NCc2ccc3c(c2)CN(C2CCC(=O)NC2=O)C3=O)C1 (stereo not drawn) [Example 93, (1,3-trans)-3-(((2-(2,6-dioxopiperidin-3-yl)-1-oxoisoindolin-5-yl)methyl)amino)cyclohexane-1-carbonitrile]	29%	252 nM	59%	26 nM
C[C@@H]1[C@H](NCc2ccc3c(c2)CN(C2CCC(=O)NC2=O)C3=O)CCCN1Cc1ccccc1 (stereo partly drawn) [Example 106, 3-(5-((((2R,3R)-1-benzyl-2-methylpiperidin-3-yl)amino)methyl)-1-oxoisoindolin-2-yl)piperidine-2,6-dione]	86%	93 nM	43%	381 nM
O=C1CCC(N2Cc3cc(CNC4CCN(C(=O)NCc5ccccc5)CC4)ccc3C2=O)C(=O)N1 (centres unmarked) [Example 4, N-benzyl-4-(((2-(2,6-dioxopiperidin-3-yl)-1-oxoisoindolin-5-yl)methyl)amino)piperidine-1-carboxamide]	95%	68 nM	95%	1700 nM
CC[C@H]1CCCC[C@H]1NCc1ccc2c(c1)CN(C1CCC(=O)NC1=O)C2=O (some centres unmarked) [Example 148]	38%	119 nM	43%	177 nM
C[C@@H]1CC[C@@H](NCc2ccc3c(c2)CN(C2CCC(=O)NC2=O)C3=O)CN1Cc1ccccc1 (stereo partly drawn) [Example 138, 3-(5-((((3R,6R)-1-benzyl-6-methylpiperidin-3-yl)amino)methyl)-1-oxoisoindolin-2-yl)piperidine-2,6-dione]	92%	27 nM	83%	189 nM
CC(C)NCc1ccc2c(c1)CN(C1CCC(=O)NC1=O)C2=O (centres unmarked) [Example 9, 3-(5-((isopropylamino)methyl)-1-oxoisoindolin-2-yl)piperidine-2,6-dione]	51%	351 nM	48%	738 nM

The remaining molecules from weak to strong by DC50 (IKZF1), led by results:

Dmax (IKZF1)	DC50 (IKZF1)	Dmax (IKZF2)	DC50 (IKZF2)	SMILES
20%	384 nM	70%	657 nM	O=C1CCC(N2Cc3cc(CN[C@@H]4CCCC[C@@H]4CO)ccc3C2=O)C(=O)N1 (stereo partly drawn) [Example 34, 3-(5-((((1R,2S)-2-(hydroxymethyl)cyclohexyl)amino)methyl)-1-oxoisoindolin-2-yl)piperidine-2,6-dione]
51%	185 nM	72%	273 nM	O=C1CCC(N2Cc3cc(CNC4CCCC5(CCCC5)C4)ccc3C2=O)C(=O)N1 (centres unmarked) [Example 133]
49%	127 nM	90%	100 nM	CCCO[C@H]1CC[C@H](NCc2ccc3c(c2)CN(C2CCC(=O)NC2=O)C3=O)CC1 (some centres unmarked) [Example 75]
32%	121 nM	93%	37 nM	O=C1CCC(N2Cc3cc(CNC45CCC(CC4)C5)ccc3C2=O)C(=O)N1 (centres unmarked) [Example 141]
23%	107 nM	71%	157 nM	C[C@@H]1CCCC[C@H]1NCc1ccc2c(c1)CN(C1CCC(=O)NC1=O)C2=O (some centres unmarked) [Example 101]
77%	102 nM	83%	319 nM	O=C1CCC(N2Cc3cc(CN[C@H]4CC[C@@](O)(c5ccccc5)CC4)ccc3C2=O)C(=O)N1 (some centres unmarked) [Example 66]
71%	45 nM	30%	121 nM	O=C1CCC(N2Cc3cc(CNC4CC(c5ccccc5)CN(Cc5ccccc5)C4)ccc3C2=O)C(=O)N1 (centres unmarked) [Example 109, 3-(5-(((1-benzyl-5-phenylpiperidin-3-yl)amino)methyl)-1-oxoisoindolin-2-yl)piperidine-2,6-dione]
